According to ChEMBL document CHEMBL3991946, “Linked Myc-max small molecule inhibitors” (2014):
Activity calls are given as the source filed them. The calls are words filed in the database; no cut-off is given here.

How the values were obtained:
[1] = target: T1, Myc proto-oncogene protein (Homo sapiens, UniProt P01106); test: Binding affinity to recombinant full-length N-terminal hexahistidine-tagged c-Myc (353 to 437 residues) bHLH-ZIP domain (unknown origin) expressed in Escherichia coli BL21 DE3 (pLysS) assessed as changes in NOESY spectra at 500 uM by NMR spectroscopy
c-Myc/Max (Homo sapiens) [2] = target: T2, c-Myc/Max (Homo sapiens) (UniProt P01106+P61244); test: (§1) Inhibition of recombinant full-length N-terminal hexahistidine-tagged c-Myc (353 to 437 residues) bHLH-ZIP domain (unknown origin) expressed in Escherichia coli BL21 DE3 (pLysS)/human hexahistidine-tagged Max p21 expressed in Escherichia coli M15 (pRep4) assessed as disruption of E-Box DNA binding preincubated for 30 mins with c-Myc followed by Max p21 and E-box element addition measured after 15 mins by electrophoretic mobility shift assay
[3] = target: T1, Myc proto-oncogene protein; test: Binding affinity to recombinant full-length N-terminal hexahistidine-tagged c-Myc (353 to 437 residues) bHLH-ZIP domain (unknown origin) expressed in Escherichia coli BL21 DE3 (pLysS) assessed as changes in alpha1H signals of Phe 374 to 375 and Tyr 402 residues at 500 uM by NMR spectroscopy
Daudi = test: Cytotoxicity against human Daudi Burkitt lymphoma cells expressing c-Myc assessed as growth inhibition after 4 to 5 days by MTT assay; type: functional, cell-based
[4] = Cytotoxicity against non-transformed rat TGR1 assessed as growth inhibition after 4 to 5 days by MTT assay; type: cell-based
[5] = Cytotoxicity against c-Myc null rat TGR1 reconstituted with HMGA1b or MT-MC1 assessed as growth inhibition after 4 to 5 days by MTT assay; type: cell-based
[6] = target: T1, Myc proto-oncogene protein; test: Binding affinity to recombinant full-length N-terminal hexahistidine-tagged c-Myc (353 to 437 residues) bHLH-ZIP domain (unknown origin) expressed in Escherichia coli BL21 DE3 (pLysS) assessed as changes in shape or intensity of CD spectrum at 5 uM by circular dichroism assay
[7] = target: T1, Myc proto-oncogene protein; test: Binding affinity to recombinant full-length N-terminal hexahistidine-tagged c-Myc (353 to 437 residues) bHLH-ZIP domain (unknown origin) expressed in Escherichia coli BL21 DE3 (pLysS) assessed as changes in COSY spectra in alpha1H region at 500 uM by NMR spectroscopy
HL-60 = test: Cytotoxicity against human HL60 cells expressing c-Myc assessed as growth inhibition after 4 to 5 days by MTT assay; type: functional, cell-based
[8] = target: T1, Myc proto-oncogene protein; test: Binding affinity to recombinant full-length N-terminal hexahistidine-tagged c-Myc (353 to 437 residues) bHLH-ZIP domain (unknown origin) expressed in Escherichia coli BL21 DE3 (pLysS) by fluorescence polarization assay
[9] = target: Protein max (Homo sapiens) (UniProt P61244); test: Binding affinity to human hexahistidine-tagged Max p21 bHLH-ZIP domain expressed in Escherichia coli M15 (pRep4) at 10 uM by fluorescence polarization assay
[10] = Metabolic stability of the compound
c-Myc/Max (Homo sapiens) [11] = target: T2, c-Myc/Max (Homo sapiens); test: as §1, with “binding at 25 to 50 nM” for “binding”, “element” for “element addition”
[12] = target: T1, Myc proto-oncogene protein; test: Binding affinity to recombinant truncated N-terminal hexahistidine-tagged c-Myc (400 to 439 residues) bHLH-ZIP domain (unknown origin) expressed in Escherichia coli BL21 DE3 (pLysS) by fluorescence polarization assay
[13] = target: T1, Myc proto-oncogene protein; test: Binding affinity to recombinant truncated N-terminal hexahistidine-tagged c-Myc (363 to 381 residues) bHLH-ZIP domain (unknown origin) expressed in Escherichia coli BL21 DE3 (pLysS) by fluorescence polarization assay
[14] = target: T3, c-Myc/c-Max (Homo sapiens) (UniProt P01106+P61244); test: Inhibition of recombinant c-Myc/Max (unknown origin) expressed in human HL60 cells assessed as disruption of c-Myc/Max association after 16 hrs by co-immunoprecipitation assay; type: cell-based
[15] = target: T3, c-Myc/c-Max (Homo sapiens); test: Inhibition of recombinant c-Myc/Max (unknown origin) expressed in human HL60 cells assessed as disruption of c-Myc/Max association after 6 hrs by co-immunoprecipitation assay; type: cell-based
[16] = target: T1, Myc proto-oncogene protein; test: Binding affinity to recombinant full-length N-terminal hexahistidine-tagged c-Myc (353 to 437 residues) bHLH-ZIP domain (unknown origin) expressed in Escherichia coli BL21 DE3 (pLysS) assessed as changes in alpha1H signals of Tyr 402 residues at 500 uM by NMR spectroscopy
[17] = target: T1, Myc proto-oncogene protein; test: Displacement of 10058-F4 from recombinant full-length N-terminal hexahistidine-tagged c-Myc (353 to 437 residues) bHLH-ZIP domain (unknown origin) expressed in Escherichia coli BL21 DE3 (pLysS) by fluorescence polarization assay

Protein max (Homo sapiens), sequence (P61244 whole entry, the tested form may be a part): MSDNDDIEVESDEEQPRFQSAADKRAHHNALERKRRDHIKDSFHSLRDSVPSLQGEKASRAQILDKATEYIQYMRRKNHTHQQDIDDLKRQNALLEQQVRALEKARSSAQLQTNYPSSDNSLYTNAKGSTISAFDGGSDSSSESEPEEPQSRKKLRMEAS
T1 sequence (P01106 whole entry, the tested form may be a part): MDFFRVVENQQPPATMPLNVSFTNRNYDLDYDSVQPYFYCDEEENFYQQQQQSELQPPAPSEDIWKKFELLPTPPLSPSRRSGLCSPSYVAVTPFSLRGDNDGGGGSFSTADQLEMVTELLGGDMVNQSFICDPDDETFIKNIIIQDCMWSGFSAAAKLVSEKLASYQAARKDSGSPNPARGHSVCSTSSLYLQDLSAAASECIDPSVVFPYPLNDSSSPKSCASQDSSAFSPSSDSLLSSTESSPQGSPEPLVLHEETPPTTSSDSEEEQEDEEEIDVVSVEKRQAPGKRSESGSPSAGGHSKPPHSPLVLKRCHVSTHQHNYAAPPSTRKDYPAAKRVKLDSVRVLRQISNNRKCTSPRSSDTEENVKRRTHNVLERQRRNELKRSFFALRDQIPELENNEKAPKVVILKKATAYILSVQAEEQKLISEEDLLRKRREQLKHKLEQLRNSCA
T3 sequence (P01106 whole entry): as the sequence (P01106 whole entry, the tested form may be a part) above
T3 sequence (P61244 2-160 partner limits assumed): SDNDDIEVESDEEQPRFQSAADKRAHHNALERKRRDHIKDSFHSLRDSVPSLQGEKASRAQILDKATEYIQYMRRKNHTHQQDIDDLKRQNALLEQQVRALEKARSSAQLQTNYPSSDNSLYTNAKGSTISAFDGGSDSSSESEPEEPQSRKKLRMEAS

Compound | Kd [8] [nM] | IC50 (Daudi) [nM] | growth inhibition (GI) [4] | growth inhibition (GI) [5] | IC50 (HL-60) [nM] | other results
CCc1ccc(/C=C2\SC(=O)N(CCCCNC(=O)c3ccc(Nc4ccc([N+](=O)[O-])c5nonc45)cc3)C2=O)cc1 | – | – | Non-Toxic | Non-Toxic | – | Stability [10]: Unstable
CC(=O)NCCCCCOC(=O)c1ccc(Nc2ccc([N+](=O)[O-])c3nonc23)cc1 | 1700 | – | – | – | – | –
O=[N+]([O-])c1ccc(Nc2ccccc2-c2ccccc2)c2nonc12 | – | – | Non-Toxic | Non-Toxic | – | inhibition (c-Myc/Max (Homo sapiens) [11]): Active; inhibition [7]: Active
O=C1NC(=S)S/C1=C/c1ccc(C(=O)NCCCCCNC(=O)c2ccc(Nc3ccc([N+](=O)[O-])c4nonc34)cc2)cc1 | – | – | Non-Toxic | Non-Toxic | – | inhibition (c-Myc/Max (Homo sapiens) [2]): Active; Activity [6]: inactive; Activity [9]: inactive
CCc1ccc(/C=C2\SC(=O)N(CCCCCNC(=O)CCCCCNC(=O)c3ccc(Nc4ccc([N+](=O)[O-])c5nonc45)cc3)C2=O)cc1 | 5 | – | – | – | – | –
O=C1NC(=S)S/C1=C\c1ccc(C(=O)NCCCCCNC(=O)c2ccccc2Nc2ccc([N+](=O)[O-])c3nonc23)cc1 | 24 | – | Non-Toxic | Non-Toxic | > 10000 | inhibition (c-Myc/Max (Homo sapiens) [2]): Active; Activity [6]: inactive; Kd [12]: 122 nM; Kd [13]: 10 nM; Activity [9]: inactive
CCc1ccc(/C=C2\SC(=O)N(CCCCNC(=O)c3ccccc3Nc3ccc([N+](=O)[O-])c4nonc34)C2=O)cc1 | 3 | 2000 to 2500 | – | – | 2000 to 6000 | inhibition [14]: inactive; Stability [10]: Unstable; inhibition [15]: Dose-dependent effect
CCc1ccc(/C=C2\SC(=S)NC2=O)cc1 | – | – | Non-Toxic | Non-Toxic | – | inhibition (c-Myc/Max (Homo sapiens) [11]): Active; inhibition [7]: Active; inhibition [16]: Active
CCc1ccc(/C=C2\SC(=O)N(CCCCCNC(=O)c3cccc(Nc4ccc([N+](=O)[O-])c5nonc45)c3)C2=O)cc1 | 110 | > 10000 | Non-Toxic | Non-Toxic | > 30000 | inhibition (c-Myc/Max (Homo sapiens) [2]): Active; Activity [6]: inactive; Activity [9]: inactive
O=C(CCCCCNC(=O)c1ccc(Nc2ccc([N+](=O)[O-])c3nonc23)cc1)NCCCCCNC(=O)c1ccc(/C=C2\SC(=S)NC2=O)cc1 | 55 | – | – | – | – | –
O=C(CNC(=O)c1ccc(Nc2ccc([N+](=O)[O-])c3nonc23)cc1)NCCCCCNC(=O)c1ccc(/C=C2\SC(=S)NC2=O)cc1 | 320 | 7000 to 11000 | Non-Toxic | Non-Toxic | 7000 to 13000 | –
O=C1NC(=S)S/C1=C\c1ccc(C(=O)NCCCCCNC(=O)c2cccc(Nc3ccc([N+](=O)[O-])c4nonc34)c2)cc1 | – | – | Non-Toxic | Non-Toxic | – | inhibition (c-Myc/Max (Homo sapiens) [2]): Active; Activity [6]: inactive; Activity [9]: inactive
O=C1NC(=S)S/C1=C\c1ccc(C(=O)O)cc1 | 26000 | – | – | – | – | –
CCc1ccc(/C=C2\SC(=O)N(CCCCCCNC(C)=O)C2=O)cc1 | 7000 | – | – | – | – | Activity [17]: Active

Further lines, with some results ahead:

Kd [8] [nM] | Compound | IC50 (Daudi) [nM] | growth inhibition (GI) [4] | growth inhibition (GI) [5] | IC50 (HL-60) [nM] | other results
0.6 | CCc1ccc(/C=C2\SC(=O)N(CCCCCNC(=O)c3ccc(Nc4ccc([N+](=O)[O-])c5nonc45)cc3)C2=O)cc1 | 2000 to 4000 | Non-Toxic | Non-Toxic | 7000 to 9000 | Activity [1]: Active; inhibition (c-Myc/Max (Homo sapiens) [2]): Active; inhibition [3]: Active; Activity [6]: inactive; inhibition [7]: Active; Activity [9]: inactive
3.6 | O=C(NCCCCCN1C(=O)S/C(=C\c2ccc(F)cc2)C1=O)c1ccc(Nc2ccc([N+](=O)[O-])c3nonc23)cc1 | 6000 to 7000 | – | – | 6000 to 10000 | –
3.6 | CCc1ccc(/C=C2\SC(=O)N(CCCCCNC(=O)CNC(=O)c3ccc(Nc4ccc([N+](=O)[O-])c5nonc45)cc3)C2=O)cc1 | 4000 to 6000 | Non-Toxic | Non-Toxic | 2000 to 4000 | –
4.6 | O=C(NCCCCCCN1C(=O)S/C(=C\c2ccc(F)cc2)C1=O)c1ccccc1Nc1ccc([N+](=O)[O-])c2nonc12 | 6000 to 8000 | – | – | 3000 to 3500 | –
1.7 | O=C(NCCCCCCN1C(=O)S/C(=C\c2ccc(F)cc2)C1=O)c1ccc(Nc2ccc([N+](=O)[O-])c3nonc23)cc1 | 1200 | – | – | 3000 to 4000 | inhibition [14]: inactive; Stability [10]: Unstable; inhibition [15]: Dose-dependent effect
11 | O=C(NCCCCCN1C(=O)S/C(=C\c2ccc(F)cc2)C1=O)c1ccccc1Nc1ccc([N+](=O)[O-])c2nonc12 | 1000 to 1200 | – | – | 1500 to 1700 | inhibition [14]: inactive; Stability [10]: Unstable; inhibition [15]: Dose-dependent effect
